US20180214428A1, “3-(1H-INDOL-2-YL)-1H-PYRAZOLO[3,4-B]PYRIDINES AND THERAPEUTIC USES THEREOF” (Samumed, LLC, priority 2015, published 2018)

Key:
[1] = tested on: primary human fibroblasts derived from IPF patients (LL29 cells); assay: Inhibition of the fibrotic process: αSMA staining in TGF-β1 treated LL29 fibroblasts; type: cell-based; conditions: for EC50: TGF-β1 20 ng/mL, 4 days, % αSMA positive cells; for inhibition at 10 µM: read-out: percent inhibition at 10 μM
Procedure, shortened: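 IPF patient-derived LL29 fibroblasts in 1% FBS medium got compound (11-point, 10 μM to 1.87 nM, 0.1% DMSO) plus TGF-β1 20 ng/mL, 4 days at 37° C. αSMA-positive live cells (SYTOX-excluded) were imaged, normalized to TGF-β1 controls and fitted for EC50; % inhibition at 10 μM given when EC50 >10 μM.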

IL-6 = IL-6 inhibition in LPS-stimulated THP-1 monocytes (HTRF); type: cell-based, human; conditions: THP-1 cells; for EC50: 500 ng/mL LPS, 22 h, HTRF IL-6 readout, 10-point dose-response from 10 μM; for inhibition at 10 µM: LPS stimulated, given only where EC50 >10 μM, top concentration 10 μM, read-out: percentage in parentheses beside EC50 >10 (IL-6 inhibition)
Procedure, shortened: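 THP-1 cells serum-reduced (1% FBS, 24 h), then 5000 cells/well preincubated 2 h with compound (10-point 1:3 series from 10 μM, 0.1% DMSO) before 500 ng/mL LPS for 22 h at 37 °C. Secreted IL-6 quantified by HTRF 665/620 ratio; DMSO-normalised duplicates fitted to four-parameter EC50; above 10 μM, % inhibition at 10 μM given.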

SW480 colon cancer cells = assay: Cell viability assay (CellTiter-Blue) in SW480 colon cancer cells; type: cell-based, human; conditions: for EC50: four days, CellTiter-Blue; for inhibition at 10 µM: given for EC50 of >10 μM, read-out: percent inhibition at 10 μM
Procedure, shortened: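 Approximately 2×10^3 SW480 cells per well are seeded with compound (8 points, threefold steps, top 10 μM) and incubated four days at 37 °C. CellTiter-Blue is then added for about 3 h and fluorescence read. Non-linear regression gives EC50; for values beyond 10 μM, percent inhibition at that concentration is listed.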

[2] = Homo sapiens, Fibroblast, at 10 μM, given for EC50 of >10 μM, TGF-β1, αSMA

## FC1(F)CCN(Cc2cncc(-c3cnc4[nH]nc(-c5cc6c(-c7ccncc7)cccc6[nH]5)c4c3)c2)C1 [Compound 118, 5-(5-((3,3-Difluoropyrrolidin-1-yl)methyl)pyridin-3-yl)-3-(4-(pyridin-4-yl)-1H-indol-2-yl)-1H-pyrazolo[3,4-b]pyridine]
[1]; Homo sapiens, Fibroblast, 96 h
  EC50: 760 nM
IL-6; Homo sapiens
  EC50: 607 nM
SW480 colon cancer cells; Homo sapiens, 96 h
  EC50: 4140 nM

## CN(C)CCNc1cc(F)cc(-c2cccc3[nH]c(-c4n[nH]c5ncc(-c6cncc(OC7CCCCC7)c6)cc45)cc23)c1 [Compound 785, N^1-(3-(2-(5-(5-(Cyclohexyloxy)pyridin-3-yl)-1H-pyrazolo[3,4-b]pyridin-3-yl)-1H-indol-4-yl)-5-fluorophenyl)-N^2,N^2-dimethylethane-1,2-diamine]
[1]; Homo sapiens, Fibroblast, 96 h
  EC50: 1240 nM
IL-6; Homo sapiens
  EC50: 1800 nM
SW480 colon cancer cells; Homo sapiens, 96 h
  EC50: 1640 nM

## c1ccc2[nH]c(-c3n[nH]c4ncc(-c5cncc(CN6CCCC6)c5)cc34)cc2c1 [Compound 240, 3-(1H-Indol-2-yl)-5-(5-(pyrrolidin-1-ylmethyl)pyridin-3-yl)-1H-pyrazolo[3,4-b]pyridine]
[1]; Homo sapiens, Fibroblast, 96 h
  EC50: 859 nM
IL-6; Homo sapiens
  EC50: 821 nM
SW480 colon cancer cells; Homo sapiens, 96 h
  EC50: 9320 nM

## CC(C)(C)C(=O)Nc1cncc(-c2cnc3[nH]nc(-c4cc5c(-c6cccnc6)cccc5[nH]4)c3c2)c1 [Compound 78, N-(5-(3-(4-(Pyridin-3-yl)-1H-indol-2-yl)-1H-pyrazolo[3,4-b]pyridin-5-yl)pyridin-3-yl)pivalamide]
[1]; Homo sapiens, Fibroblast, 96 h
  EC50: > 10000 nM
[1]; [2]
  inhibition at 10 µM: 24.2%
IL-6; Homo sapiens
  EC50: 88 nM
SW480 colon cancer cells; Homo sapiens, 96 h
  EC50: 1730 nM

## O=C(Nc1cncc(-c2cnc3[nH]nc(-c4cc5ccccc5[nH]4)c3c2)c1)C1CCCCC1 [Compound 249, N-(5-(3-(1H-Indol-2-yl)-1H-pyrazolo[3,4-b]pyridin-5-yl)pyridin-3-yl) cyclohexanecarboxamide]
[1]; Homo sapiens, Fibroblast, 96 h
  EC50: > 10000 nM
[1]; [2]
  inhibition at 10 µM: 0%
IL-6; Homo sapiens
  EC50: > 10000 nM
  inhibition at 10 µM: 14.2%
SW480 colon cancer cells; Homo sapiens, 96 h
  EC50: > 10000 nM
SW480 colon cancer cells; Homo sapiens
  inhibition at 10 µM: 6.7%

## CN(C)CCNc1cc(F)cc(-c2cccc3[nH]c(-c4n[nH]c5ncc(-c6cncnc6)cc45)cc23)c1 [Compound 449, N^1-(3-Fluoro-5-(2-(5-(pyrimidin-5-yl)-1H-pyrazolo[3,4-b]pyridin-3-yl)-1H-indol-4-yl)phenyl)-N^2,N^2-dimethylethane-1,2-diamine]
[1]; Homo sapiens, Fibroblast, 96 h
  EC50: 1160 nM
IL-6; Homo sapiens
  EC50: 7 nM
SW480 colon cancer cells; Homo sapiens, 96 h
  EC50: 1300 nM

## CN(C)CCNc1cc(F)cc(-c2cccc3[nH]c(-c4n[nH]c5ncc(-c6ccncc6)cc45)cc23)c1 [Compound 440]
[1]
  EC50: > 10000 nM
[1]; at 10 μM, given for EC50 of >10 μM, TGF-β1, αSMA
  percent inhibition at 10 μM: 0%
IL-6
  EC50: 15 nM
SW480 colon cancer cells
  EC50: 4140 nM

## O=C(Nc1cncc(-c2cnc3[nH]nc(-c4cc5c(-c6cccc(F)c6)cccc5[nH]4)c3c2)c1)C1CCCCC1 [Compound 19, N-(5-(3-(4-(3-Fluorophenyl)-1H-indol-2-yl)-1H-pyrazolo[3,4-b]pyridin-5-yl)pyridin-3-yl)cyclohexanecarboxamide]
[1]; Homo sapiens, Fibroblast, 96 h
  EC50: > 10000 nM
[1]; [2]
  inhibition at 10 µM: 28.9%
IL-6; Homo sapiens
  EC50: > 10000 nM
  inhibition at 10 µM: 19.2%
SW480 colon cancer cells; Homo sapiens, 96 h
  EC50: > 10000 nM
SW480 colon cancer cells; Homo sapiens
  inhibition at 10 µM: 11.1%

## CN1CCN(c2cccc3[nH]c(-c4n[nH]c5ncc(-c6ccncc6)cc45)cc23)CC1 [Compound 218, 3-(4-(4-Methylpiperazin-1-yl)-1H-indol-2-yl)-5-(pyridin-4-yl)-1H-pyrazolo[3,4-b]pyridine]
[1]; Homo sapiens, Fibroblast, 96 h
  EC50: 3810 nM
IL-6; Homo sapiens
  EC50: 106 nM
SW480 colon cancer cells; Homo sapiens, 96 h
  EC50: 9070 nM

## Nc1cncc(-c2cnc3[nH]nc(-c4cc5c(-c6ccccc6F)cccc5[nH]4)c3c2)c1 [Compound 49, 5-(3-(4-(2-Fluorophenyl)-1H-indol-2-yl)-1H-pyrazolo[3,4-b]pyridin-5-yl) pyridin-3-amine]
[1]; Homo sapiens, Fibroblast, 96 h
  EC50: 173 nM
IL-6; Homo sapiens
  EC50: 276 nM
SW480 colon cancer cells; Homo sapiens, 96 h
  EC50: 589 nM

## CS(=O)(=O)NCc1cc(F)cc(-c2cccc3[nH]c(-c4n[nH]c5ncc(-c6ccccn6)cc45)cc23)c1 [Compound 478, N-(3-Fluoro-5-(2-(5-(pyridin-2-yl)-1H-pyrazolo[3,4-b]pyridin-3-yl)-1H-indol-4-yl)benzyl)methanesulfonamide]
[1]; Homo sapiens, Fibroblast, 96 h
  EC50: 2420 nM
IL-6; Homo sapiens
  EC50: 690 nM
SW480 colon cancer cells; Homo sapiens, 96 h
  EC50: > 10000 nM
SW480 colon cancer cells; Homo sapiens
  inhibition at 10 µM: 22.6%

## CN(C)Cc1cncc(-c2cnc3[nH]nc(-c4cc5c(-c6cc(F)cc(CNS(C)(=O)=O)c6)cccc5[nH]4)c3c2)c1 [Compound 463, N-(3-(2-(5-(5-((Dimethylamino)methyl)pyridin-3-yl)-1H-pyrazolo[3,4-b]pyridin-3-yl)-1H-indol-4-yl)-5-fluorobenzyl)methane sulfonamide]
[1]; Homo sapiens, Fibroblast, 96 h
  EC50: 2030 nM
IL-6; Homo sapiens
  EC50: 451 nM
SW480 colon cancer cells; Homo sapiens, 96 h
  EC50: 1070 nM

## O=C(Nc1cncc(-c2cnc3[nH]nc(-c4cc5c(-c6ccc(F)cc6)cccc5[nH]4)c3c2)c1)c1ccccc1 [Compound 32, N-(5-(3-(4-(4-Fluorophenyl)-1H-indol-2-yl)-1H-pyrazolo[3,4-b]pyridin-5-yl)pyridin-3-yl)benzamide]
[1]; Homo sapiens, Fibroblast, 96 h
  EC50: 4950 nM
IL-6; Homo sapiens
  EC50: > 10000 nM
  inhibition at 10 µM: 17.7%
SW480 colon cancer cells; Homo sapiens, 96 h
  EC50: > 10000 nM
SW480 colon cancer cells; Homo sapiens
  inhibition at 10 µM: 32.5%

## c1cc(-c2ccncc2)c2cc(-c3n[nH]c4ncc(-c5ccncc5)cc34)[nH]c2c1 [Compound 111, 5-(Pyridin-4-yl)-3-(4-(pyridin-4-yl)-1H-indol-2-yl)-1H-pyrazolo[3,4-b]pyridine]
[1]; Homo sapiens, Fibroblast, 96 h
  EC50: 2770 nM
IL-6; Homo sapiens
  EC50: 4170 nM
SW480 colon cancer cells; Homo sapiens, 96 h
  EC50: > 10000 nM
SW480 colon cancer cells; Homo sapiens
  inhibition at 10 µM: 36.4%

## c1ccc(-c2cnc3[nH]nc(-c4cc5c(-c6ccncc6)cccc5[nH]4)c3c2)nc1 [Compound 120, 5-(Pyridin-2-yl)-3-(4-(pyridin-4-yl)-1H-indol-2-yl)-1H-pyrazolo[3,4-b]pyridine]
[1]; Homo sapiens, Fibroblast, 96 h
  EC50: 642 nM
IL-6; Homo sapiens
  EC50: 103 nM
SW480 colon cancer cells; Homo sapiens, 96 h
  EC50: > 10000 nM
SW480 colon cancer cells; Homo sapiens
  inhibition at 10 µM: 22.8%

## Fc1ccccc1-c1cccc2[nH]c(-c3n[nH]c4ncc(C5CCNCC5)cc34)cc12 [Compound 539, 3-(4-(2-Fluorophenyl)-1H-indol-2-yl)-5-(piperidin-4-yl)-1H-pyrazolo[3,4-b]pyridine]
[1]; Homo sapiens, Fibroblast, 96 h
  EC50: 5080 nM
IL-6; Homo sapiens
  EC50: 3600 nM
SW480 colon cancer cells; Homo sapiens, 96 h
  EC50: > 10000 nM
SW480 colon cancer cells; Homo sapiens
  inhibition at 10 µM: 51.5%

## CN1CCN(c2cccc3[nH]c(-c4n[nH]c5ncc(-c6cncc(NC(=O)C7CCCC7)c6)cc45)cc23)CC1 [Compound 222, N-(5-(3-(4-(4-Methylpiperazin-1-yl)-1H-indol-2-yl)-1H-pyrazolo[3,4-b]pyridin-5-yl)pyridin-3-yl)cyclopentanecarboxamide]
[1]; Homo sapiens, Fibroblast, 96 h
  EC50: 790 nM
IL-6; Homo sapiens
  EC50: 98 nM
SW480 colon cancer cells; Homo sapiens, 96 h
  EC50: 828 nM

## Cc1ccncc1-c1cnc2[nH]nc(-c3cc4c(-c5ccc(F)cc5)cccc4[nH]3)c2c1 [Compound 27, 3-(4-(4-Fluorophenyl)-1H-indol-2-yl)-5-(4-methylpyridin-3-yl)-1H-pyrazolo[3,4-b]pyridine]
[1]; Homo sapiens, Fibroblast, 96 h
  EC50: 1610 nM
IL-6; Homo sapiens
  EC50: > 10000 nM
  inhibition at 10 µM: 41.7%
SW480 colon cancer cells; Homo sapiens, 96 h
  EC50: > 10000 nM
SW480 colon cancer cells; Homo sapiens
  inhibition at 10 µM: 13.9%
